Earlier results, collected in patent publication US20090175803A1 (priority 2008, published 2009).

Columns and labels:
[1] = peroxyl-radical scavenging
[2] = tested on: carcinogen-induced preneoplastic lesions; conditions: mouse mammary organ culture
PPARA = biological target: T1, PPARA (Homo sapiens, UniProt Q07869)
T1 sequence (Q07869 1-468): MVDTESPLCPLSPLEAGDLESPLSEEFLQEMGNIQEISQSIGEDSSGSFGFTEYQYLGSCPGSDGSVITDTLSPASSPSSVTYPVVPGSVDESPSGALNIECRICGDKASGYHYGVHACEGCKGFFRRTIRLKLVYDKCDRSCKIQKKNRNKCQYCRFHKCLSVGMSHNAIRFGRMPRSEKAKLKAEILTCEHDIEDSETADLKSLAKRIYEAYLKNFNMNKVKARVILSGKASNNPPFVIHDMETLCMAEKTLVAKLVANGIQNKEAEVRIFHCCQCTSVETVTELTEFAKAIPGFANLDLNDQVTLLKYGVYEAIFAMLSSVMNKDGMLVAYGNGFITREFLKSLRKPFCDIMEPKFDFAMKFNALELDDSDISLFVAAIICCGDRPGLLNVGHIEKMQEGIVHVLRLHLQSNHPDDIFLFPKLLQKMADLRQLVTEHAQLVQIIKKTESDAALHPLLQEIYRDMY

[3] = tested on: PGE2 production from LPS-stimulated human peripheral blood mononuclear cells; conditions: LPS-stimulated human PBMC

For `COc1cc(/C=C/c2ccc(O)cc2)cc(OC)c1` [Pterostilbene, 4-[(E)-2-(3,5-dimethoxyphenyl)ethenyl]phenol], the “total reactive antioxidant potential” value [1] is given as 237 ± 58 µM, the “inhibition of carcinogen-induced preneoplastic lesions” value [2] is given as “significant inhibition” and the PPARA agonism (PPARA) is given as “acts as a PPARA agonist”. The blood glucose (animal studies) was “can lower blood glucose”, the “lipid and glucose lowering effects” value (in vivo studies) was “possesses lipid and glucose lowering effects” and the PGE2 production [3] was “inhibited PGE2 production”. For the same compound, the “cell proliferation and apoptosis” value (human gastric cancer) was “inhibit cell proliferation and induce apopotosis in a concentration- and time-dependent manner”.
